This is an account of results in ChEMBL document CHEMBL1201862, “PubChem BioAssay data set” (2004).

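Step 1: Grow cells in 96-well plates. Step 2: Expose to compound for 48 hours at 5 concentrations. Step 3: Interpolate endpoints linearly; if unreached, use highest concentration. The concentration for 50% growth inhibition is given as GI50.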 Activity calls are given as the source filed them. No stated cut-off is given here; in the data, active = GI50 up to about 1.1 µM and inactive = higher.

Among the test systems are DMS-114; DMS-273; HOP-18; SNB-78; XF498; LXFL 529; RXF 631.
Holding throughout (assay): NCI anticancer screen, dose series, 48 h

`C1OC1C1CO1` (configuration not stated): the GI50 with DMS-114 was 10.4 µM (inactive); with DMS-273, 10.4 µM (inactive); in the assay with HOP-18, > 100 µM (inactive); in the assay with SNB-78, 87.3 µM (inactive); with XF498, > 100 µM (inactive).

Turning to `O=C(N/C(=C\c1ccc(/C=C(\NC(=O)c2ccccc2)c2nc3ccccc3s2)cc1)c1nc2ccccc2s1)c1ccccc1`, the GI50 was 11.4 µM (inactive) in the assay on DMS-114; 3.71 µM (inactive) with DMS-273; 13.2 µM (inactive) with HOP-18; 2.98 µM (inactive) with LXFL 529; 7.96 µM (inactive) with RXF 631; 20.8 µM (inactive) with SNB-78.

On to `Cc1c(C#N)c(=O)[nH]c(=O)n1CCN1CCN(C(=O)NCCCCCCNC(=O)N2CCN(CCn3c(C)c(C#N)c(=O)[nH]c3=O)CC2)CC1`, for which the GI50 in the assay with DMS-114, with DMS-273, in the assay with HOP-18, in the assay with LXFL 529, in the assay on SNB-78 and with XF498 was > 100 µM (inactive) in each case.

In the case of `N#Cc1cccc(C2C(=O)c3ccc(C(=O)c4ccc5c(c4)C(=O)N(c4ccc(Oc6ccc(N7C(=O)c8ccc(C(=O)c9ccc%10c(c9)C(=O)N(c9cccc(C#N)c9)C%10=O)cc8C7=O)cc6)cc4)C5=O)cc3C2=O)c1` (configuration not stated), the GI50 in the assay on DMS-114, in the assay on DMS-273, in the assay with LXFL 529, in the assay with RXF 631 and in the assay with XF498 was > 100 µM (inactive) each time.

As for `N[C@H](C(=O)O)[C@@H](Cl)CC(=O)O`, the GI50 with DMS-114, in the assay on DMS-273, in the assay with HOP-18, in the assay on LXFL 529, in the assay on SNB-78 and in the assay on XF498 was > 100 µM (inactive) in each case.

As to `Cc1cc(C)c(S(=O)(=O)ONC(=O)OC(C)(C)C)c(C)c1`, the GI50 in the assay on DMS-273, with LXFL 529, with RXF 631, in the assay on SNB-78 and with XF498 was > 100 µM (inactive) throughout.

Regarding `O=[N+]([O-])c1ccc2nc(/C(=N/Nc3ccccc3)C(O)c3ccco3)c(O)nc2c1` (configuration not stated), the GI50 in the assay with DMS-114 was 40 µM (inactive); in the assay on DMS-273, > 100 µM (inactive); in the assay with LXFL 529 it was 42.1 µM (inactive); in the assay with RXF 631, > 100 µM (inactive); in the assay on XF498 it was > 100 µM (inactive).

In the case of `CNCc1cc(OC)ccc1-c1ccc(OC)c(OC)c1OC`, the GI50 in the assay with DMS-114 was 60.8 µM (inactive); in the assay on DMS-273, > 100 µM (inactive); in the assay with HOP-18, > 32.5 µM (inactive); with LXFL 529, > 100 µM (inactive); with RXF 631 it was > 100 µM (inactive); in the assay on SNB-78 it was > 100 µM (inactive). In addition, the GI50 in the assay on XF498 was 85.3 µM (inactive).

Regarding `Nn1c(-c2ccccc2)nc2ccc(Br)cc2c1=O`, the GI50 was 31.8 µM (inactive) with DMS-114; 40.2 µM (inactive) in the assay with DMS-273; 17.5 µM (inactive) in the assay with HOP-18; 34 µM (inactive) in the assay on LXFL 529; 59 µM (inactive) in the assay with RXF 631; 85.7 µM (inactive) in the assay with SNB-78. For the same compound, in the assay with XF498, the GI50 is 13.7 µM (inactive).

On to `C[Si](C)(C)/N=C1\N2C(=NC1(C(F)(F)F)C(F)(F)F)Sc1ccccc12`, for which the GI50 in the assay with DMS-114, in the assay with DMS-273, in the assay with HOP-18, in the assay on LXFL 529, in the assay on RXF 631 and with SNB-78 was > 50 µM (inactive) each time. The GI50 in the assay on XF498 was > 50 µM (inactive).

Take `NC(=O)C(=O)C1CCC2=C(Sc3ccccc3N2)C1=O` (configuration not stated): the GI50 in the assay with DMS-114, in the assay on LXFL 529, in the assay on RXF 631 and with SNB-78 was > 100 µM (inactive) in each case.

For `COC(=O)C1(C(=O)OC)CC(=O)c2cc3c(cc2-c2c(cc(OC)c(OC)c2OC)C1)OCO3`, the GI50 in the assay on DMS-273 is 124 µM (inactive); with HOP-18, 0.0211 µM (active); in the assay on LXFL 529 it was 137 µM (inactive); in the assay with RXF 631, > 211 µM (inactive).

Regarding `CN(C)c1nc(N(C)C)n2nc(-c3ccccc3[N+](=O)[O-])nc2n1`, the GI50 with DMS-114 was > 100 µM (inactive); in the assay with DMS-273, 33.5 µM (inactive); with HOP-18, > 100 µM (inactive); in the assay on LXFL 529, 86.3 µM (inactive); in the assay with SNB-78 it was > 100 µM (inactive); in the assay on XF498 it was > 100 µM (inactive).

Take `C[Si](C)(C)/C=C/CCC(C=O)(CCCl)c1ccccc1` (configuration not stated): the GI50 with DMS-114 is 19.5 µM (inactive); in the assay with DMS-273 it was 19.4 µM (inactive); with HOP-18, 27.4 µM (inactive); with LXFL 529, 30.1 µM (inactive); in the assay with SNB-78, 23.8 µM (inactive); with XF498, 18.7 µM (inactive).

Take `O=C1C(Cl)C(c2cccc(O)c2)N1n1cnc2ccccc2c1=O` (configuration not stated): the GI50 with DMS-114 was > 100 µM (inactive); with DMS-273 it was > 100 µM (inactive); in the assay on HOP-18 it was 39.9 µM (inactive); in the assay with LXFL 529, > 100 µM (inactive); in the assay with SNB-78, > 100 µM (inactive); in the assay on XF498, > 100 µM (inactive).

For `CC1=Nc2ccccc2C1C(Cc1ccccc1N)c1c(C)[nH]c2ccccc12` (configuration not stated), the GI50 in the assay on DMS-114 is 19.2 µM (inactive); in the assay with HOP-18 it was 12.4 µM (inactive); in the assay on LXFL 529, 16 µM (inactive); with RXF 631 it was 18.2 µM (inactive); in the assay on XF498, 18.5 µM (inactive).

Consider `COc1ccccc1NC(=O)C1=C(C)NC(C)=C(C(=O)Nc2ccccc2OC)C1c1ccc(C)cc1`, for which the GI50 in the assay with DMS-114 is 51.9 µM (inactive); with DMS-273, 40 µM (inactive); in the assay with HOP-18, 76 µM (inactive); in the assay with LXFL 529 it was 74.1 µM (inactive); in the assay with SNB-78, 56.5 µM (inactive); in the assay with XF498, 24.3 µM (inactive).

Turning to `CCCC(O)c1ccc2[nH]c3c(C)cc([N+](=O)[O-])c(C)c3c2c1` (configuration not stated), the GI50 is > 100 µM (inactive) in the assay on DMS-114; 21.3 µM (inactive) with DMS-273; > 100 µM (inactive) in the assay on HOP-18; > 100 µM (inactive) in the assay with SNB-78; > 100 µM (inactive) with XF498.

In the case of `CCOC(=O)C(CC/C=C\c1ccccc1)N1CCC[C@H]1C(=O)OC` (some centres not stated), the GI50 with DMS-114 was 59.6 µM (inactive); in the assay with DMS-273, > 100 µM (inactive); in the assay with HOP-18, > 100 µM (inactive); with LXFL 529, > 100 µM (inactive); in the assay with SNB-78, > 100 µM (inactive); with XF498, > 100 µM (inactive).

Take `COC(=O)C1=C(C(=O)OC)C(C(=O)OC)C(C(=O)OC)=C1C(=O)OC`: the GI50 with DMS-114, with DMS-273, in the assay on HOP-18, in the assay on LXFL 529 and in the assay on RXF 631 was > 100 µM (inactive) each time.
